# Assay results as given in PMC4506051, “Pharmacokinetic Profiles of Active Ingredients and Its Metabolites Derived from Rikkunshito, a Ghrelin Enhancer, in Healthy Japanese Volunteers: A Cross-Over, Randomized Study” (PLoS ONE, 2015).
# Key:
# [1] = Method validation: freeze-thaw stability in plasma
# [2] = Randomized crossover quantitative trial: plasma pharmacokinetics of nine ingredients after rikkunshito 2.5, 5.0 or 7.5 g; conditions: for AUC(0-t) / Cmax / Tmax / half-life: human, po; for Tmax: Median t max (range); for Tmax / Median t max (range): median (minimum–maximum)
# Procedure, shortened: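 Plasma concentrations of ingredients were measured by LC–MS/MS or GC–MS in samples taken from pre-dose to 48 h. Dosing was a single oral rikkunshito dose (2.5, 5.0 or 7.5 g; three-arm randomized crossover) in fasted healthy Japanese volunteers aged 20–45.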
# [3] = Method validation: stability in blood
# [4] = Method validation: long-term stability in plasma
# [5] = 7.5 g dosage; cited from earlier work
# [6] = Method validation: post-preparative stability (autosampler); conditions: for Post-preparative stability, RR: autosampler set at 4°C
# [7] = Method validation: short-term stability in plasma
# [8] = Stability of ingredients in gastric pH solution (pH 1.2, 37°C); type: physicochemical
# Experimental: Rikkunshito gradually dissolved in acidic solution (pH 1.2) at 37°C, and the concentration of atractylodin after adding 0.25, 0.5, 1, and 2 h was measured by gas chromatography–mass spectrometry.
# [9] = Method validation: stability in standard, stock and working solution; conditions: for Short-term stability of standard solution, RR: at room temperature for 24 h; for Stock solution stability, RR: 0.1 mg/mL (naringenin 0.5 mg/mL)
# [10] = Dose proportionality (linearity) test by power model for C max and AUC0-last; conditions: for Dose proportionality test using power model, Inference: linear when 90% CI of β included 1, CIlower ≥0.8, and CIupper ≤1.25; for Dose proportionality test using power model, β: rikkunshito 2.5, 5.0 or 7.5 g
# Experimental: The dose proportionality was analyzed via a power model [21, 22]. […] Evaluation of linearity of the dosage-exposure relationship was conducted with Phoenix WinNonlin and SAS 9.2 (SAS Institute, Inc., Cary, NC).
# [11] = rikkunshito 7.5 g single oral, n = 19, geometric mean (95% CI)
# [12] = rikkunshito 7.5 g single oral, n = 19
structure (smiles),measurement,setting,value
C/C=C/C#CC#C/C=C/c1ccco1 [Atractylodin],"Freeze-thaw stability, RR","[1]; atractylodin 0.600 ng/mL, deep freezer, 2 cycles",109.3%
same,"Freeze-thaw stability, RR","[1]; atractylodin 0.600 ng/mL, deep freezer, 3 cycles",115.1%
same,"Freeze-thaw stability, RR","[1]; atractylodin 16.0 ng/mL, deep freezer, 2 cycles",122.6%
same,"Freeze-thaw stability, RR","[1]; atractylodin 16.0 ng/mL, deep freezer, 3 cycles",133.6%
same,Plasma concentration just before the administration,"[2]; all subjects, quantitative trial",BQL
same,AUC(0-t),"[2]; in vivo, 2.5 g",0.318 ng·h/mL
same,Cmax,"[2]; in vivo, 2.5 g",0.531 ng/mL
same,Tmax,"[2]; in vivo, 2.5 g, rikkunshito 2.5 g single oral, n = 21",0.5 h
same,AUC(0-t),"[2]; in vivo, 5 g",1.06 ng·h/mL
same,Cmax,"[2]; in vivo, 5 g",1.02 ng/mL
same,Tmax,"[2]; in vivo, 5 g, rikkunshito 5.0 g single oral, n = 19",0.5 h
same,half-life,"[2]; in vivo, 5 g, t 1/2, rikkunshito 5.0 g single oral, n = 19, geometric mean (95% CI)",0.746 h
same,AUC(0-t),"[2]; in vivo, 7.5 g",1.76 ng·h/mL
same,Cmax,"[2]; in vivo, 7.5 g",1.57 ng/mL
same,Tmax,"[2]; in vivo, 7.5 g, rikkunshito 7.5 g single oral, n = 19",≤ 1 h
same,t 1/2,[2]; [11],0.888 (0.687–1.15) h
same,Median t max (range),[2]; [12],0.500 (0.250–1.00) h
same,"Stability in blood, remaining ratio (RR)","[3]; atractylodin 1.00 ng/mL, at room temperature for 2 h",90.3%
same,"Stability in blood, RR","[3]; atractylodin 1.00 ng/mL, on ice for 2 h",93.8%
same,"Long-term stability, RR","[4]; atractylodin 0.600 ng/mL, deep freezer, 15 days",98.4%
same,"Long-term stability, RR","[4]; atractylodin 0.600 ng/mL, deep freezer, 29 days",88.7%
same,"Long-term stability, RR","[4]; atractylodin 0.600 ng/mL, deep freezer, 57 days",101.4%
same,"Long-term stability, RR","[4]; atractylodin 0.600 ng/mL, deep freezer, 169 days",95.2%
same,"Long-term stability, RR","[4]; atractylodin 16.0 ng/mL, deep freezer, 15 days",98.6%
same,"Long-term stability, RR","[4]; atractylodin 16.0 ng/mL, deep freezer, 29 days",98.6%
same,"Long-term stability, RR","[4]; atractylodin 16.0 ng/mL, deep freezer, 57 days",109.4
same,"Long-term stability, RR","[4]; atractylodin 16.0 ng/mL, deep freezer, 169 days",102.8%
same,Maximum plasma concentration in the preliminary pharmacokinetics study,[5],1.84 ± 0.626 ng/mL
same,"Post-preparative stability, RE","[6]; atractylodin 0.600 ng/mL, autosampler set at 4°C for 24 h",-3.8%
same,"Post-preparative stability, RE","[6]; atractylodin 0.600 ng/mL, autosampler set at 4°C for 48 h",4.0%
same,"Post-preparative stability, RE","[6]; atractylodin 16.0 ng/mL, autosampler set at 4°C for 24 h",9.0%
same,"Post-preparative stability, RE","[6]; atractylodin 16.0 ng/mL, autosampler set at 4°C for 48 h",8.7%
same,"Short-term stability, RR","[7]; atractylodin 0.600 ng/mL, deep freezer (−90.4°C to −69.5°C) for 4 h",95.6%
same,"Short-term stability, RR","[7]; atractylodin 0.600 ng/mL, deep freezer for 24 h",101.5%
same,"Short-term stability, RR","[7]; atractylodin 16.0 ng/mL, deep freezer (−90.4°C to −69.5°C) for 4 h",101.9%
same,"Short-term stability, RR","[7]; atractylodin 16.0 ng/mL, deep freezer for 24 h",102.9%
same,Stability in a solution with the same pH as that in the stomach,"[8]; pH 1.2, 37°C, S10 Table",stable
same,"Stability in gastric pH solution, Quantitative value","[8]; rikkunshito in acidic solution (pH 1.2) at 37°C, 0.5 h",9.03 ng/mL
same,"Stability in gastric pH solution, Quantitative value","[8]; rikkunshito in acidic solution (pH 1.2) at 37°C, 1 h",9.72 ng/mL
same,"Stability in gastric pH solution, Quantitative value","[8]; rikkunshito in acidic solution (pH 1.2) at 37°C, 2 h",8.13 ng/mL
same,"Short-term stability of standard solution, RR",[9]; atractylodin 1.00 ng/mL,104.6%
same,"Short-term stability of standard solution, RR",[9]; atractylodin 5000 ng/mL,106.7%
same,"Dose proportionality test using power model, Inference",[10]; AUC0-last,Nonlinear
same,"Dose proportionality test using power model, β",[10]; AUC0-last,1.60
same,"Dose proportionality test using power model, Inference",[10]; Cmax,Linear^a
same,"Dose proportionality test using power model, β",[10]; Cmax,0.988
"COc1ccc(-c2oc3c(OC)c(OC)c(OC)c(OC)c3c(=O)c2OC)cc1OC [Heptamethoxyflavone, 3,3′,4′,5,6,7,8-heptamethoxyflavone]","Freeze-thaw stability, RR","[1]; −30°C to −10°C, 3 cycles, higher concentration (800 / 320 / 4000 pg/mL)",113.5%
same,"Freeze-thaw stability, RR","[1]; −30°C to −10°C, 3 cycles, lower concentration (20 / 8 / 100 pg/mL)",107.1%
same,AUC(0-t),"[2]; plasma, 2.5 g, AUC0-last, rikkunshito 2.5 g single oral, n = 21, geometric mean (95% CI)",0.0849 ng·h/mL
same,Cmax,"[2]; plasma, 2.5 g, C max, rikkunshito 2.5 g single oral, n = 21, geometric mean (95% CI)",0.0388 ng/mL
same,Tmax,"[2]; plasma, 2.5 g, rikkunshito 2.5 g single oral, n = 21",0.5 h
same,half-life,"[2]; plasma, 2.5 g, t 1/2, rikkunshito 2.5 g single oral, n = 21, geometric mean (95% CI)",1.92 h
same,AUC(0-t),"[2]; plasma, 5 g, AUC0-last, rikkunshito 5.0 g single oral, n = 19, geometric mean (95% CI)",0.124 ng·h/mL
same,Cmax,"[2]; plasma, 5 g, C max, rikkunshito 5.0 g single oral, n = 19, geometric mean (95% CI)",0.0582 ng/mL
same,Tmax,"[2]; plasma, 5 g, rikkunshito 5.0 g single oral, n = 19",1 h
same,half-life,"[2]; plasma, 5 g, t 1/2, rikkunshito 5.0 g single oral, n = 19, geometric mean (95% CI)",1.5 h
same,AUC(0-t),"[2]; plasma, 7.5 g, AUC0-last, rikkunshito 7.5 g single oral, n = 19, geometric mean (95% CI)",0.225 ng·h/mL
same,Cmax,"[2]; plasma, 7.5 g, C max, rikkunshito 7.5 g single oral, n = 19, geometric mean (95% CI)",0.105 ng/mL
same,Tmax,"[2]; plasma, 7.5 g, rikkunshito 7.5 g single oral, n = 19",≤ 1 h
same,t 1/2,[2]; [11],1.51 (1.15–1.98) h
same,t 1/2,"[2]; rikkunshito 7.5 g single oral, n = 19, geometric mean (95% CI), listed as heptamethoxyflavone",< 10 h
same,Median t max (range),[2]; [12],1.00 (0.250–1.02) h
same,"Stability in blood, RR","[3]; on ice 2 h, higher concentration (800 / 320 / 4000 pg/mL)",92.3%
same,"Stability in blood, RR","[3]; on ice 2 h, lower concentration (20 / 8 / 100 pg/mL)",97.5%
same,"Stability in blood, RR","[3]; room temperature 2 h, higher concentration (pachymic acid 800, heptamethoxyflavone 320, naringenin 4000 pg/mL)",96.0%
same,"Stability in blood, RR","[3]; room temperature 2 h, lower concentration (pachymic acid 20, heptamethoxyflavone 8, naringenin 100 pg/mL)",107.1%
same,"Long-term stability, RR","[4]; freezer −30°C to −10°C, 13 days, lower concentration (pachymic acid 20, heptamethoxyflavone 8 pg/mL)",90.3%
same,"Long-term stability, RR","[4]; freezer, 13 days, higher concentration (pachymic acid 800, heptamethoxyflavone 320 pg/mL)",113.1%
same,"Long-term stability, RR","[4]; freezer, 39 days, higher concentration (800 / 320 pg/mL)",99.7%
same,"Long-term stability, RR","[4]; freezer, 39 days, lower concentration (20 / 8 pg/mL)",85.5%
same,"Long-term stability, RR","[4]; freezer, 228 days, higher concentration (800 / 320 pg/mL)",87.5%
same,"Long-term stability, RR","[4]; freezer, 228 days, lower concentration (20 / 8 pg/mL)",85.0%
same,Maximum plasma concentration in the preliminary pharmacokinetics study,[5],0.253 ± 0.301 ng/mL
same,"Post-preparative stability, RR","[6]; 24 h, higher concentration (pachymic acid 800, heptamethoxyflavone 320 pg/mL)",86.3%
same,"Post-preparative stability, RR","[6]; 24 h, lower concentration (pachymic acid 20, heptamethoxyflavone 8 pg/mL)",100.3%
same,"Post-preparative stability, RR","[6]; 48 h, higher concentration (800 / 320 / 4000 pg/mL)",90.8%
same,"Post-preparative stability, RR","[6]; 48 h, lower concentration (20 / 8 / 100 pg/mL)",96.5%
same,"Short-term stability, RR","[7]; room temperature 25 h, higher concentration (pachymic acid 800, heptamethoxyflavone 320 pg/mL)",91.2%
same,"Short-term stability, RR","[7]; room temperature 25 h, lower concentration (pachymic acid 20, heptamethoxyflavone 8 pg/mL)",90.3%
same,"Short-term stability, RR","[7]; room temperature (1°C to 30°C) 4 h, higher concentration (800 / 320 / 4000 pg/mL)",103.3%
same,"Short-term stability, RR","[7]; room temperature (1°C to 30°C) 4 h, lower concentration (20 / 8 / 100 pg/mL)",99.5%
same,"Stability in gastric pH solution, Quantitative value","[8]; 0.5 h, pH 1.2",25.5 ng/mL
same,"Stability in gastric pH solution, Quantitative value","[8]; 1 h, pH 1.2",30.7 ng/mL
same,"Stability in gastric pH solution, Quantitative value","[8]; 2 h, pH 1.2",28.7 ng/mL
same,"Working solution stability, RR","[9]; refrigerator 53 days, higher concentration (pachymic acid 10, heptamethoxyflavone 4, naringenin 50 ng/mL)",100.4%
same,"Working solution stability, RR","[9]; refrigerator 53 days, lower concentration (pachymic acid 0.1, heptamethoxyflavone 0.04, naringenin 0.5 ng/mL)",109.3%
same,"Working solution stability, RR","[9]; refrigerator 128 days, higher concentration (10 / 4 / 50 ng/mL)",98.8%
same,"Working solution stability, RR","[9]; refrigerator 128 days, lower concentration (0.1 / 0.04 / 0.5 ng/mL)",101.6%
same,"Stock solution stability, RR",[9]; refrigerator (1°C to 8°C) 54 days,54 days: 98.7%
same,"Stock solution stability, RR",[9]; refrigerator (1°C to 8°C) 129 days,129 days: 92.7%
same,"Dose proportionality test using power model, Inference",[10]; AUC0-last,Nonlinear
same,"Dose proportionality test using power model, β",[10]; AUC0-last,0.804
same,"Dose proportionality test using power model, Inference",[10]; Cmax,Nonlinear
same,"Dose proportionality test using power model, β",[10]; Cmax,0.817
